# In patent publication US8257749B2, “Systems providing at least pesticidal activity” (Biolargo Life Technologies, Incorporated, priority 2007, dated 2012):
# Assays:
# enterococci [1] = test: iodine wash of natural Santa Monica beach soil sample; type: cell-based; conditions: started at 1100 MPN, wash samples greater than 10 parts per million, all of five consecutive washes
# Experimental: In a first experiment, a natural sample from Santa Monica beach was user. This soil sample was taken from an area close to a storm drain. Concentrations started at 1100 MPN enterococci per 100 gram sediment were used. Wash samples having a concentration of greater than 10 parts per million were used on the soil samples. Enterocci concentrations approached zero for all of five consecutive washes. A longer term experiment was then performed with sand dosed with a pure culture of enterococci, the >10 ppm iodine solution imbibed in the soil, and then autoclaving. The bacterial level started at 1050 MPN/100 g, and went to zero immediately upon treatment. This was clearly evidenced in five washes (all zero). Two samples were treated with >10 ppm iodine solutions and left to sit on the roof for several days. The bacterial levels were approximately zero at the end of the experiment. Samples that were imbibed with the >10 ppm solution and the sand raked, had bacterial levels that decreased in concentration during the days, and rebounded at night for two nights, and then ended up at zero, indicating effectiveness of the solution, and a benefit to combination of the solution with heat and/or light. The undisturbed controls in both dark and light ended up with countable bacteria at the end. […]
# enterococci [2] = test: longer term experiment, sand dosed with pure culture of enterococci and imbibed with iodine solution; type: cell-based
# Experimental: In a first experiment, a natural sample from Santa Monica beach was user. This soil sample was taken from an area close to a storm drain. Concentrations started at 1100 MPN enterococci per 100 gram sediment were used. Wash samples having a concentration of greater than 10 parts per million were used on the soil samples. Enterocci concentrations approached zero for all of five consecutive washes. A longer term experiment was then performed with sand dosed with a pure culture of enterococci, the >10 ppm iodine solution imbibed in the soil, and then autoclaving. The bacterial level started at 1050 MPN/100 g, and went to zero immediately upon treatment. This was clearly evidenced in five washes (all zero). Two samples were treated with >10 ppm iodine solutions and left to sit on the roof for several days. The bacterial levels were approximately zero at the end of the experiment. Samples that were imbibed with the >10 ppm solution and the sand raked, had bacterial levels that decreased in concentration during the days, and rebounded at night for two nights, and then ended up at zero, indicating effectiveness of the solution, and a benefit to combination of the solution with heat and/or light. The undisturbed controls in both dark and light ended up with countable bacteria at the end.
# In a first experiment showing the efficacy of the iodine treatment on bacteria in soil, a natural sample from Santa Monica beach was user. This soil sample was taken from an area close to a storm drain. Concentrations started at 1100 MPN enterococci per 100 gram sediment were used. Wash samples having a concentration of greater than 10 parts per million were used on the soil samples. Enterocci concentrations approached zero for all of five consecutive washes. A longer term experiment was then performed with sand dosed with a pure culture of enterococci, the >10 ppm iodine solution imbibed in the soil, and then autoclaving. The bacterial level started at 1050 MPN/100 g, and went to zero immediately upon treatment. This was clearly evidenced in five washes (all zero). […]
smiles,measurement,setting,value
"II [iodine solution, molecular iodine]",Enterocci concentrations after wash,enterococci [1],approximately zero
same,"bacterial levels at end, imbibed and raked sand","enterococci [2]; >10 ppm solution, sand raked, decreased during the days, rebounded at night for two nights",zero
same,bacterial level immediately upon treatment,"enterococci [2]; sand dosed with pure culture, started at 1050 MPN/100 g, >10 ppm iodine solution imbibed, five washes (all zero)",zero
same,bacterial levels at the end of the experiment,"enterococci [2]; two samples treated with >10 ppm iodine solutions, left to sit on the roof for several days",approximately zero
